Values of other authors in US20230357868A1 (priority 2021, published 2023).

Tests used:
[1] = test system: potato spindle tuber viroid (PSTVd); conditions: LAMP reaction
[2] = LAMP visualization reagent

Compound	Effect on amplification [1]	Toxicity [2]
O=S(=O)([O-])c1ccc2c(N=Nc3c(O)cc(S(=O)(=O)[O-])c4ccccc34)c(O)c(S(=O)(=O)[O-])cc2c1.[Na+].[Na+].[Na+] [Hydroxynaphthol blue (HNB)]	None	May cause eye irritation
O=P([O-])([O-])OP(=O)([O-])[O-].[Mg+2].[Mg+2] [Mg-pyrophosphate (Mg-PPi)]	None	
CCCN(CCCN(C)C)c1cc(/C=C2/Sc3ccccc3N2C)c2ccccc2[n+]1-c1ccccc1 [SYBR Green I]	Not inhibiting when used 0.5-1x	Mutation enhancer
